# Assay results from paper PMC8092218, “NirA Is an Alternative Nitrite Reductase from Pseudomonas aeruginosa with Potential as an Antivirulence Target” (mBio, 2021).
# Target: T1, PA4130 (NirA) (Pseudomonas aeruginosa, UniProt Q9HWQ1)
# T1 construct: full ORF, N-terminal hexahistidine tag, plasmid pSK4130-N; coexpressed with E. coli cysG in E. coli NiCo21; IMAC and chitin column; monomer; siroheme and 4Fe-4S
# Assay: reduced methyl viologen oxidation assay, spectrophotometric; Griess diazotization
# Format: biochemical
# Conditions: electron acceptor; reduced methyl viologen or dithionite-reduced spinach ferredoxin as donor; anaerobic
# T1 sequence (Q9HWQ1 entry or part of it): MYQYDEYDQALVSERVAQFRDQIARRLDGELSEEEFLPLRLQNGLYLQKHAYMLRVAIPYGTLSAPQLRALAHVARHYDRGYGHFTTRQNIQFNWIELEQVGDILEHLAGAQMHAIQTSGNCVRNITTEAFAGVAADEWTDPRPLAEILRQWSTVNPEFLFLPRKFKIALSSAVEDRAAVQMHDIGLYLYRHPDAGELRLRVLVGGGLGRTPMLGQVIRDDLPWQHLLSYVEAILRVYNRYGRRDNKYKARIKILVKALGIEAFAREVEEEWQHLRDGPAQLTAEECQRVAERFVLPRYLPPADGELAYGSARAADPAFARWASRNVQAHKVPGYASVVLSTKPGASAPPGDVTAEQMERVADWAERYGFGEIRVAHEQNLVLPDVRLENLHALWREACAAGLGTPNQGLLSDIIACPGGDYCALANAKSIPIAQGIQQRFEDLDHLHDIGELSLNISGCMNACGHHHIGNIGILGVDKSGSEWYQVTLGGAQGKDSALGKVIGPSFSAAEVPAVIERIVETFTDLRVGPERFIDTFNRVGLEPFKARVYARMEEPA
smiles,measurement,value
O=NO [nitrite],"reduced methyl viologen oxidation assay, spectrophotometric; Griess diazotizatio",PA4130 was able to oxidize MV only in the presence of nitrite
